# Experimental data published in US7201899B2, “Materials and methods for management of hyperacute rejection in human xenotransplantation” (BresaGen Limited, priority 1994, dated 2007).
# Test system: porcine cells (PAE's and PK1's)
# Test: Complement-mediated lysis of porcine cells (51CR release and LDH release assays)
# Format: cell-based
# Details: effective sugar concentrations covered about 10 mM
# Procedure: The ability of human serum to cause the lysis of porcine cells was examined using both pig epithelial (PK1) and aortic endothelial (PAE's) cells, the isolation and culture of which is described in Example 2. Cell lysis was determined using either the ^51Chromium release assay as described by Cerottini and Brunner, Nature New Biol. 237:272, 1972 or the Cytotox LDH release assay according to the manufacturer's instructions (Promega, USA).
# A. ^51CR Release Assay • 1. Preparation of Cells: • a) Trypsinize a confluent flask of cells. On average, approximately 3×10^6 PAE's and approximately 3×10^7 PK1 cells are obtained per 10 ml flask. About 1×10^5 cells are required for each well in the 5CR Release Assay. • b) Wash cells […] in 10 ml RPMI (no FCS); spin 1200 rpm for 5 min. • c) Resuspend cells in 100 μl RPMI (with 10% heat-inactivated FCS; see below). • 2. […]
smiles,measurement,value
"O=C[C@H](O)[C@@H](O)[C@H](O)[C@H](O)CO[C@H]1O[C@H](CO)[C@H](O)[C@H](O)[C@H]1O [Melibiose, 6-O-α-D-galactopyranosyl-D-glucose]",protection of porcine cells from complement-induced lysis,protects the porcine cells from lysis
